Where “and” joins values, the source holds several entries; their conditions need not be identical. Identical values can stand only once. Like-named read-outs stand apart in the source and are kept apart here. Marks after values point to notes of the source that are not given here.
Columns and labels:
M. tuberculosis [1] = assay: Minimum inhibitory concentration in liquid medium (axenic culture); format: cell-based, Mycobacterium tuberculosis; details: Mycobacterium tuberculosis; for IC50: read-out: Anti-tubercular activity in axenic culture IC50
RAW264.7 cells = assay: Macrophage viability in the same high content assay; details: infected RAW264.7 macrophages; for Intracellular activity Cytotoxicity TC50: 72 h; for Intracellular RAW TC50: SAR tables 4-8
[2] = HepG2 cytotoxicity (CellTiter-Glo, 72 h); format: cell-based, human; details: human
Method: (§1) Cytotoxicity against HepG2 cells was measured after 72 h. Cells were seeded in 384-well plates at 1,800 cells per well. Compounds were added as a 10-point three-fold serial dilution after 24 h (final assay concentration of 1% DMSO). CellTiter-Glo® reagent (Promega) was added and relative luminescence units (RLU) measured. Data were normalized to the DMSO controls. Curves were fitted using the Levenberg–Marquardt algorithm; TC50 was calculated as the compound concentration required to reduce cell viability by 50%.
(§2) We further evaluated cytotoxicity using the HepG2 cell line cultured with either glucose or galactose in the medium (Table 2). HepG2 cells cultured with galactose rely on mitochondrial oxidative phosphorylation rather than glycolysis which increases their susceptibility to mitochondrial toxicants allowing us to identify compounds with mitochondrial toxicity ([Kamalian et al., 2015]).

HepG2 cells = assay: HepG2 cytotoxicity (CellTiter-Glo, 72 h); format: cell-based, human; details: for HepG2 cytotoxicity TC50 Galactose / HepG2 cytotoxicity TC50 Glucose: 72 h; for ratio of TC50glu/TC50gal: HepG2, glucose vs galactose
Method: as §1, §2

M. tuberculosis [3] = assay: High content assay of intracellular M. tuberculosis growth in infected RAW264.7 macrophages; format: cell-based, Mycobacterium tuberculosis H37Rv-LP; details: Mycobacterium tuberculosis, RAW264.7, 72 h, M. tuberculosis in RAW264.7 cells, MOI 1, 72 h; read-out: Intracellular activity Anti-tubercular activity IC50
Method: Compounds were obtained in 384-well plates as 10 mM DMSO stock solutions and tested as described ([Manning et al., 2017]). Briefly, assay plates were prepared in clear bottom, black 384-well plates with 30 μl cRPMI and 0.6 μl compound in columns 3–22 (final concentration of 10 μM compound, 1% DMSO). […] INH and STA were also included in dose response on each plate. RAW264.7 cells were infected with M. tuberculosis DREAM8 as described ([Manning et al., 2017]) at an MOI of 1 for 24 h and extracellular bacteria removed by washing. Cells were recovered using Accumax, harvested, washed and resuspended in serum-free RPMI; 30 μl of infected cells were dispensed into each well at 3,300 cells/well. Plates were incubated for 72 h, 10 μl of 5X SYBR Green I was added and plates were imaged with an ImageXpress Micro High Content Screening System (Molecular Devices) using a ×4 objective and FITC and Texas Red channels. MetaXpress was used to analyze images. The integrated intensity of M. tuberculosis or macrophages was calculated for each well. Growth inhibition was calculated for each test well by normalizing to the average integrated intensity of the DMSO control wells. IC50 was calculated as the compound concentration required to reduce bacterial growth by 50%. TC50 was calculated as the compound concentration required to reduce macrophage viability by 50%.

[4] = 120 h, extracellular, 5 days, OD590
[5] = 120 h, extracellular, 5 days, OD590, read-out: Anti-tubercular activity in axenic culture IC90
[6] = axenic culture, SAR tables 4-8, read-out: Extracellular IC90
[7] = HepG2 cytotoxicity IC50 Galactose
[8] = HepG2 cytotoxicity IC50 Glucose

Row | Structure (SMILES) | IC50 (M. tuberculosis [1]; [4]) [µM] | IC90 (M. tuberculosis [1]; [5]) [µM] | IC90 (M. tuberculosis [1]; [6]) [µM] | Intracellular activity Cytotoxicity TC50 (RAW264.7 cells) | Intracellular RAW TC50 (RAW264.7 cells) | IC50 at 72 h [2, 7] [µM] | IC50 at 72 h [2, 8] [µM] | HepG2 cytotoxicity TC50 Galactose (HepG2 cells; human) | HepG2 cytotoxicity TC50 Glucose (HepG2 cells; human) | IC50 (M. tuberculosis [3]) [µM] | IC50 (M. tuberculosis [1]; 120 h) [µM] | IC90 (M. tuberculosis [1]; 120 h, read-out: Anti-tubercular activity in axenic culture IC90) [µM] | HepG2 cytotoxicity TC50 Galactose (HepG2 cells; galactose medium) | HepG2 cytotoxicity TC50 Glucose (HepG2 cells; glucose medium) | ratio of TC50glu/TC50gal (HepG2 cells)
1 | Cc1ccc(OCC(=O)Nc2ccc(N3CCCCC3)c(Cl)c2)cc1 [TPN-0006206] | > 20 | > 20 | > 20 | 57 ± 20 ^b µM | 57 ± 20 ^c µM | > 100 | > 100 | >100 ^b µM | >100 ^b µM | – | – | – | – | – | –
2 | O=C(c1ccc(Cl)c(Cl)c1)N1CCN(c2ccc([N+](=O)[O-])c3cccnc23)CC1 [TPN-0095034] | > 20 | > 20 | – | >100 ^d µM | – | – | – | >100 ^c µM | >100 ^c µM | 8.4 ± 2.3 | – | – | – | – | –
3 | O=C(CN1CCC(Cc2ccccc2)CC1)Nc1ccc(Cl)cn1 [TPN-0095042] | > 10 | > 10 | – | 21 ± 9.3 ^c µM | – | – | – | 19 ± 1.0 ^b µM | 26 ± 3.0 ^b µM | 3.7 ± 0.62 | – | – | – | – | –
4 | COc1ccc(OCCNC(=O)c2cc([N+](=O)[O-])cc([N+](=O)[O-])c2)cc1 [TPN-0095031] | – | – | – | 40 ± 25 ^e µM | – | – | – | – | – | 0.036 ± 0.007 | 0.2 ± 0.07 | 0.4 ± 0.14 | 52 ± 0.47 ^c µM | 57 ± 6.2 ^c µM | –
5 | Cc1ccc(NC(=O)CCN2CCN(c3ccc(Cl)cc3)CC2)cc1 [TPN-0095037] | > 20 | > 20 | – | 54 ± 26 ^c µM | – | – | – | 56 ± 4 ^b µM | 84 ± 2.5 ^b µM | 2 ± 0.53 | – | – | – | – | –
6 | Clc1ccc(Nc2nc(-c3cccs3)cs2)cc1 [TPN-0095025] | > 20 | > 20 | – | 26 ± 7.1 ^c µM | – | – | – | 28 ± 1.5 ^b µM | 35 ± 1.0 ^a µM | 4.4 ± 1.7 | – | – | – | – | –
7 | Clc1c(-c2ccccc2)nc2ccccn12 [TPN-0095030] | > 20 | > 20 | – | >100 ^b µM | – | – | – | >100 ^b µM | >100 ^b µM | 6.9 ± 1.9 | – | – | – | – | –
8 | Cc1ccc(Nc2nc(C(N)=O)c(N)s2)cc1 [TPN-0095028] | > 20 | > 20 | – | 54 ± 20 ^b µM | – | – | – | 62 ± 6.2 ^c µM | 54 ± 9.4 ^c µM | 4.4 ± 1.3 | – | – | – | – | –
9 | CCOC(=O)c1nnn(-c2nc(N3CCCC3)nc(N3CCCC3)n2)c1-c1ccccc1 [TPN-0095040] | > 10 | > 10 | – | 31 ± 18 ^b µM | – | – | – | >50 ^c µM | >50 ^c µM | – | – | – | – | – | –
10 | Cn1nc(C2CC2)cc1C(=O)Nc1ccc(I)cc1 [TPN-0089788] | > 20 | > 20 | – | >100e µM | – | – | – | 30 ± 12 ^e µM | 52 ± 18 ^e µM | 2.5 ± 0.57 | – | – | – | – | –
11 | COc1ccc(C2Oc3ccc(Cl)cc3C3=C2C(c2ccc(OC)cc2)n2ncnc2N3)cc1 (stereo not drawn) [TPN-0095029] | > 10 | > 10 | – | >50 ^b µM | – | – | – | >50 ^b µM | >50 ^b µM | > 50 | – | – | – | – | –
12 | Cc1sc(NC(=O)c2ccc(OC(C)C)cc2)c(C(N)=O)c1C [TPN-0073559] | > 20 | > 20 | > 20 | 50 ± 24 ^d µM | 50 ± 24 ^d µM | 41 ± 11 | 49 ± 8.5 | 41 ± 11 ^c µM | 49 ± 8.5 ^c µM | – | – | – | – | – | –
13 | Cc1c(Cc2ccccc2)sc(NC(=O)c2ccccc2Cl)c1C(N)=O [TPN-0073560] | > 20 | > 20 | > 20 | 23 ± 4.7 ^d µM | 23 ± 4.7 ^d µM | 42 ± 3.3 | > 100 | 42 ± 3.3 ^c µM | >100 ^b µM | – | – | – | – | – | ~4
14 | COc1ccc(CNC(=O)c2c(C)nc3ccccn23)cc1 [TPN-0095027] | 0.17 ± 0.02 | 0.6 ± 0.2 | – | 72 ± 16 ^d µM | – | – | – | 22 ± 2.2 ^c µM | 76 ± 12 ^c µM | 0.1 ± 0.01 | – | – | – | – | –
15 | COc1c(Cl)ccc(Cl)c1C(=O)Nc1sc2c(c1C(N)=O)CCCC2 [TPN-0073571] | – | – | – | 15 ± 5 µM and 15 ± 5.0 ^b µM | – | 26 ± 5 | > 100 | 26 ± 5.0 ^b µM | >100 ^b µM | – | – | – | – | – | ~4
16 | Clc1ccc(C2C=C(c3ccc(Br)cc3)Nc3ncnn32)cc1 (stereo not drawn) [TPN-0095026] | 19 ± 1 | > 20 | – | 19 ± 12 ^b µM | – | – | – | 18 ± 5 ^b µM | 19 ± 3.5 ^b µM | – | – | – | – | – | –
17 | O=c1c(/C=N/Cc2cccnc2)c(NCc2cccnc2)nc2ccccn12 [TPN-0095033] | > 20 | > 20 | – | >100 ^c µM | – | – | – | >100 ^c µM | >100 ^c µM | 3.4 ± 2.6 | – | – | – | – | –
18 | O=C(CN(C1=NCCCS1)c1ccccc1)c1ccc(Cl)c(Cl)c1 [TPN-0095036] | > 20 | > 20 | – | 27 ± 2.8 ^c µM | – | – | – | 20 ± 0.47 ^c µM | 21 ± 3.4 ^c µM | 3.5 ± 0.97 | – | – | – | – | –
19 | COc1ccc(C(=O)c2sc(NCc3ccccc3)nc2N)cc1 [TPN-0095041] | 14 ± 1 | > 20 | – | 13 ± 5.5 ^c µM | – | – | – | 24 ± 0.5 ^b µM | 52 ± 5.5 ^b µM | 3.6 ± 0.5 | – | – | – | – | –
20 | NNC(=O)c1ccncc1 [INH, isoniazid, reference compound] | – | – | – | – | – | – | – | – | – | 0.23 ± 0.08 | – | – | – | – | –
21 | Cc1ccc(Nc2nc(-c3ccc(Cl)cc3)cs2)cc1Cl [TPN-0095032] | > 20 | > 20 | – | 9.9 ± 0.98 ^c µM | – | – | – | 19 ± 0.5 ^b µM | 23 ± 1.5 ^b µM | 3.5 ± 0.83 | – | – | – | – | –
22 | Brc1c(-c2ccccc2)nc2ccccn12 [TPN-0095038] | 9.2 ± 1 | > 20 | – | 72 ± 15 ^b µM | – | – | – | >100 ^c µM | >100 ^b µM | 2.5 | – | – | – | – | –
23 | Fc1ccc(C2CC(c3ccc(Cl)cc3Cl)n3ncnc3N2)cc1 (stereo not drawn) [TPN-0095039] | 14 ± 2.1 | 18 ± 1.4 | – | 24 ± 6.1 ^c µM | – | – | – | 30 ± 3.2 ^d µM | 29 ± 7.7 ^e µM | 2.1 ± 0.74 | – | – | – | – | –
24 | CCOC(=O)c1sc(NC(=O)Cc2c(F)cccc2Cl)nc1C [TPN-0089695] | 19 | > 20 | – | 45 ± 17 ^b µM | – | – | – | >100 ^e µM | >100 ^d µM | 4.7 ± 1.2 | – | – | – | – | –
25 | O=C(c1c(F)cccc1F)N1CCN(c2cc(N3CCCCCC3)c(F)cc2[N+](=O)[O-])CC1 [TPN-0095035] | 9.6 ± 0.1 | > 10 | – | >50 ^c µM | – | – | – | 21 ± 2.0 ^b µM | 27 ± 0 ^b µM | 1 ± 0.02 | – | – | – | – | –

From paper PMC8762250, “Identification of Novel Chemical Scaffolds that Inhibit the Growth of Mycobacterium tuberculosis in Macrophages” (Frontiers in Pharmacology, 2022)
